# Laboratory results published in US20160060288A1, “Ester derivatives of 7-alpha-[9-(4,4,5,5,5-pentafluoropentylsulfinyl)nonyl)-estra-1,3,5(10)-triene-3,17beta-diol having anticancer activity and preparation method thereof” (XI'ANLIBANG PHARMACEUTICAL TECHNOLOGY CO., LTD., priority 2013, published 2016).
# Assays:
# [1] = tested on: human breast cancer MCF-7; assay: Growth inhibition of human breast cancer MCF-7 xenografted in nude mice; type: in vivo, BALB/c female nude mice; details: oiling agent, 100 mg/kg s.c. once, 28 days after administration; for Tumor weight: X ± SD; for Tumor inhibition rate: from tumor weight vs control
# Source text: Test drugs: fulvestrant, Compounds II and X are dispersed in oil and sterilized to be prepared as oiling agents respectively.
# [2] = physchem; details: thermodynamic from solid
# Source text: (§1) Fulvestrant and ester derivatives of fulvestrant were accurately weighed to an appropriate amount respectively. Their solubilities (in mg/mL) in different oils and solvents were compared according to General Notice in Section 2 of Chinese Pharmacopoeia (2010).
# [3] = cited from earlier work
# [4] = Body weight of MCF-7 xenografted nude mice; details: oiling agent, 100 mg/kg s.c. once, 28 days after administration, X ± SD
# Procedure: Experimental animals and grouping thereof, source, germline and strain: BALB/c female nude mice, provided by Laboratory Animal Research Center of Academy of Military Medical Sciences of China (Laboratory animal production license: SCXK (Military) 2007-004), day-old: 35-40 days; body weight: 18-24 g.
# Establishment of model and tumor measuring method: human breast cancer MCF-7 cell lines in logarithmic growth phase were prepared into a cell suspension of 5×10^8/mL under sterile condition, with 0.1 mL of which being inoculated to nude mice at their right armpits subcutaneously. Xenografted tumors of nude mice were measured for diameter with vernier caliper, and animals were randomly grouped when the tumors grew to 100-300 mm^3. The administration volume to each of the mice was 0.2 mL/20 g by subcutaneous injection at head and neck region. 28 days after administration, the mice were sacrificed and the tumors were stripped by surgery and weighed.
# [5] = Solubility experiments of fulvestrant and ester derivatives in different oils and solvents; details: thermodynamic from solid
# Source text: as §1
# [6] = oil or lipid, Solubility in soybean oil
# [7] = organic solvent or mixture, Solubility in propylene glycol
smiles,measurement,setting,value
CCCCCCCCCCCCCCCC(=O)OC1CCC2C3C(CCCCCCCCC[S+]([O-])CCCC(F)(F)C(F)(F)F)Cc4cc(O)ccc4C3CCC12C (centres unmarked) [Compound II],Tumor weight,[1],0.426 ± 0.306 g
same,Tumor inhibition rate,[1],64.90%
same,solubility,"[2]; oil or lipid, Solubility in castor oil",> 100000 µg/mL
same,solubility,"[2]; oil or lipid, Solubility in medium-chain oil",> 10000 µg/mL
same,solubility,[2]; [6],> 100000 µg/mL
same,solubility,"[2]; organic solvent or mixture, Solubility in PEG 400",2900 µg/mL
same,solubility,[2]; [7],10200 µg/mL
CC(CCC(C(=O)OC1CCC2C3C(CCCCCCCCC[S+]([O-])CCCC(F)(F)C(F)(F)F)Cc4cc(O)ccc4C3CCC12C)C(C)CC(C)(C)C)CC(C)(C)C (centres unmarked) [Compound IV],solubility,[2]; [6],28000 µg/mL
same,solubility,[2]; [7],7100 µg/mL
CCCCCCCCCCC(=O)OC1CCC2C3C(CCCCCCCCC[S+]([O-])CCCC(F)(F)C(F)(F)F)Cc4cc(O)ccc4C3CCC12C (centres unmarked) [Compound I],solubility,[2]; [6],255000 µg/mL
same,solubility,[2]; [7],2900 µg/mL
CCCCCCCC/C=C/C(=O)OC1CCC2C3C(CCCCCCCCC[S+]([O-])CCCC(F)(F)C(F)(F)F)Cc4cc(O)ccc4C3CCC12C (centres unmarked) [Compound V],solubility,[2]; [6],122000 µg/mL
same,solubility,[2]; [7],12200 µg/mL
CCCCCCCC/C=C/C(=O)OC1CCC2C3C(CCCCCCCCC[S+]([O-])CCCC(F)(F)C(F)(F)F)Cc4cc(OC(=O)CCC)ccc4C3CCC12C (centres unmarked) [Compound X],Tumor weight,[1],0.402 ± 0.711 g
same,Tumor inhibition rate,[1],65.93%
"CC12CCC3c4ccc(O)cc4CC(CCCCCCCCC[S+]([O-])CCCC(F)(F)C(F)(F)F)C3C1CCC2O (stereo not drawn) [Fulvestrant, 7-α-[9-(4,4,5,5,5-pentafluoropentylsulfinyl)nonyl]-estra-1,3,5(10)-triene-3,17β-diol]",Tumor weight,[1],0.392 ± 0.443 g
same,Tumor inhibition rate,[1],66.78%
same,Solubility in Migloyl 810,"[3]; Migloyl 810, 25° C.",3060 µg/mL
same,Solubility in Migloyl 812,"[3]; Migloyl 812, 25° C.",2720 µg/mL
same,Solubility in Span 85,"[3]; Span 85, 25° C.",3790 µg/mL
same,Solubility in benzyl alcohol,"[3]; benzyl alcohol, 25° C.",> 200000 µg/mL
same,Solubility in benzyl benzoate,"[3]; benzyl benzoate, 25° C.",6150 µg/mL
same,Solubility in castor oil,"[3]; castor oil, 25° C.",20000 µg/mL
same,Solubility in castor oil (reported value),"[3]; castor oil, * denotes reported value",20* mg/mL
same,Solubility in ethanol,"[3]; ethanol, 25° C.",> 200000 µg/mL
same,Solubility in ethyl oleate,"[3]; ethyl oleate, 25° C.",1250 µg/mL
same,Solubility in isopropyl myristate,"[3]; isopropyl myristate, 25° C.",800 µg/mL
same,Solubility in peanut oil,"[3]; peanut oil, 25° C.",450 µg/mL
same,Solubility in sesame oil,"[3]; sesame oil, 25° C.",580 µg/mL
same,Solubility in water,"[3]; water, 25° C.",1 µg/mL
same,Water solubility,[3]; water,about 10 ng/mL
same,Final body weight,[4],15.800 ± 1.166 g
same,solubility,"[5]; PEG 400, organic solvent or mixture, Solubility in PEG 400, PEG 400",6900 µg/mL
same,solubility,"[5]; propylene glycol, organic solvent or mixture, Solubility in propylene glycol",10200 µg/mL
same,solubility,"[5]; soybean oil, oil or lipid, Solubility in soybean oil",5000 µg/mL
